Active and inactive are the calls of the source. No rule for the calls is given here.
Test system: MCF-7/NOD2 cells, MDP-induced IL-8 secretion
Test: NOD2 pathway IL-8 secretion inhibitors – MCF-7/NOD2 cells, MDP stimulus, SAR follow-up (AID 2260)

SMILES | IC50
Nc1nc2ccccc2n1S(=O)(=O)c1ccccc1 | > 5 µM (inactive)
O=C(O)c1c(NC(=O)N2CCOCC2)sc2c1CCCC2 | > 25 µM (inactive)
Cc1ccc(S(=O)(=O)n2c(N)nc3cc(C)c(C)cc32)cc1 | > 5 µM (inactive)
Cc1ccc(S(=O)(=O)n2c(N)nc3ccccc32)cc1 | > 25 µM (inactive)
COc1ccc(S(=O)(=O)n2c(N)nc3ccccc32)cc1 | > 5 µM (inactive)
Nc1nc2ccccc2n1S(=O)(=O)c1ccc([N+](=O)[O-])cc1 | > 5 µM (inactive)

Source: PubChem BioAssay AID2260 (Sanford-Burnham Center for Chemical Genomics, 2010)
